#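 All cell lines were grown in 96-well plates and treated with compound for 48 hours. GI50: concentration for 50% inhibition of growth. At the TGI there is no net growth.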
# Columns and labels:
# Test in all cases: NCI-60 cell line screen, 48 h
# [1] = system: SF-268 CNS
# [2] = system: SF-539 CNS
# [3] = system: SR leukemia
# [4] = system: OVCAR-8 ovarian
# [5] = system: NCI-H522 lung
# [6] = system: RPMI-8226 leukemia
# [7] = system: ACHN renal
# [8] = system: BT-549 breast
# [9] = system: NCI/ADR-RES ovarian
# [10] = system: PC-3 prostate
# [11] = system: HT29 colon
# [12] = system: K-562 leukemia
# [13] = system: CCRF-CEM leukemia
# [14] = system: MDA-MB-435
# [15] = system: MCF7 breast
# [16] = system: UACC-62 melanoma
# [17] = system: SN12C renal
# [18] = system: T-47D breast
# [19] = system: DU-145 prostate
# [20] = system: MOLT-4 leukemia
# [21] = system: IGROV1 ovarian
# [22] = system: SF-295 CNS
# [23] = system: EKVX NSCLC
# [24] = system: SW-620 colon
# [25] = system: LOX IMVI melanoma
# [26] = system: MDA-MB-231 breast
# [27] = system: NCI-H226 lung
# [28] = system: SK-OV-3 ovarian
# [29] = system: 786-0 renal
# [30] = system: A549 NSCLC
# [31] = system: COLO 205 colon
# [32] = system: TK-10 renal
# [33] = system: OVCAR-5 ovarian
# [34] = system: KM12 colon
# [35] = system: SK-MEL-28 melanoma
# [36] = system: UO-31 renal
# [37] = system: RXF 393 renal
# [38] = system: HCC-2998 colon
# [39] = system: SNB-19 CNS
# [40] = system: SK-MEL-5 melanoma
# [41] = system: HOP-62 NSCLC
# [42] = system: HCT-116 colon
# [43] = system: A498 renal
# [44] = system: SNB-75 CNS
# [45] = system: HL-60(TB) leukemia
# [46] = system: UACC-257 melanoma
# [47] = system: M14 melanoma
# [48] = system: HOP-92 NSCLC
# [49] = system: OVCAR-3 ovarian
# [50] = system: U251 CNS
# [51] = system: CAKI-1 renal
# [52] = system: OVCAR-4 ovarian
# [53] = system: SK-MEL-2 melanoma
# [54] = system: HS 578T breast
# [55] = system: NCI-H460 lung
# [56] = system: HCT-15 colon
# [57] = system: NCI-H23 lung
# [58] = system: MALME-3M melanoma
smiles,measurement,setting,value
CS(=O)(=O)c1ccc(-n2nc(C(F)(F)F)cc2OC2CCCC2)cc1,GI50,[1],36.1 µM
same,TGI,[1],> 100 µM
same,GI50,[2],39.8 µM
same,TGI,[2],> 100 µM
same,GI50,[3],19.8 µM
same,TGI,[3],47.9 µM
same,GI50,[4],43.8 µM
same,TGI,[4],> 100 µM
same,GI50,[5],45.8 µM
same,TGI,[5],> 100 µM
same,GI50,[6],34.8 µM
same,TGI,[6],> 100 µM
same,GI50,[7],22.4 µM
same,TGI,[7],56 µM
same,GI50,[8],28.5 µM
same,TGI,[8],73 µM
same,GI50,[9],25 µM
same,TGI,[9],81.8 µM
same,GI50,[10],27.7 µM
same,TGI,[10],> 100 µM
same,GI50,[11],24.7 µM
same,TGI,[11],78.4 µM
same,GI50,[12],29.1 µM
same,TGI,[12],92.6 µM
same,GI50,[13],38.3 µM
same,TGI,[13],> 100 µM
same,GI50,[14],59.6 µM
same,TGI,[14],> 100 µM
same,GI50,[15],25.4 µM
same,TGI,[15],80.2 µM
same,GI50,[16],33.3 µM
same,TGI,[16],> 100 µM
same,GI50,[17],25.8 µM
same,TGI,[17],71.7 µM
same,GI50,[18],33 µM
same,TGI,[18],> 100 µM
same,GI50,[19],38.9 µM
same,TGI,[19],> 100 µM
same,GI50,[20],35.9 µM
same,TGI,[20],> 100 µM
same,GI50,[21],> 100 µM
same,TGI,[21],> 100 µM
same,GI50,[22],37.4 µM
same,TGI,[22],> 100 µM
same,GI50,[23],82.5 µM
same,TGI,[23],> 100 µM
same,GI50,[24],71.2 µM
same,TGI,[24],> 100 µM
same,GI50,[25],16.9 µM
same,TGI,[25],54.6 µM
same,GI50,[26],26 µM
same,TGI,[26],71.2 µM
same,GI50,[27],34 µM
same,TGI,[27],> 100 µM
same,GI50,[28],51.8 µM
same,TGI,[28],> 100 µM
same,GI50,[29],34 µM
same,TGI,[29],> 100 µM
same,GI50,[30],25.7 µM
same,TGI,[30],79.4 µM
same,GI50,[31],29 µM
same,TGI,[31],81.7 µM
same,GI50,[32],36.9 µM
same,TGI,[32],93.9 µM
same,GI50,[33],> 100 µM
same,TGI,[33],> 100 µM
same,GI50,[34],38.5 µM
same,TGI,[34],> 100 µM
same,GI50,[35],> 100 µM
same,TGI,[35],> 100 µM
same,GI50,[36],> 100 µM
same,TGI,[36],> 100 µM
same,GI50,[37],94.3 µM
same,TGI,[37],> 100 µM
same,GI50,[38],27 µM
same,TGI,[38],73.5 µM
same,GI50,[39],48.7 µM
same,TGI,[39],> 100 µM
same,GI50,[40],19.5 µM
same,TGI,[40],36.2 µM
same,GI50,[41],88 µM
same,TGI,[41],> 100 µM
same,GI50,[42],34.5 µM
same,TGI,[42],> 100 µM
same,GI50,[43],25.2 µM
same,TGI,[43],56.2 µM
same,GI50,[44],> 100 µM
same,TGI,[44],> 100 µM
same,GI50,[45],24 µM
same,TGI,[45],59.3 µM
same,GI50,[46],40.1 µM
same,TGI,[46],> 100 µM
same,GI50,[47],32.2 µM
same,TGI,[47],93.5 µM
same,GI50,[48],50.7 µM
same,TGI,[48],> 100 µM
same,GI50,[49],32.9 µM
same,TGI,[49],> 100 µM
same,GI50,[50],22.1 µM
same,TGI,[50],75 µM
same,GI50,[51],21.1 µM
same,TGI,[51],54.4 µM
same,GI50,[52],30.3 µM
same,TGI,[52],> 100 µM
same,GI50,[53],> 100 µM
same,TGI,[53],> 100 µM
same,GI50,[54],> 100 µM
same,TGI,[54],> 100 µM
same,GI50,[55],27.8 µM
same,TGI,[55],> 100 µM
same,GI50,[56],30.6 µM
same,TGI,[56],80.1 µM
O=C(Nc1ccncc1)C(=O)c1cn(S(=O)(=O)c2cccc(F)c2)c2ccccc12,GI50,[1],10.9 µM
same,TGI,[1],> 100 µM
same,GI50,[2],4.41 µM
same,TGI,[2],> 100 µM
same,GI50,[3],0.552 µM
same,TGI,[3],> 100 µM
same,GI50,[57],2.43 µM
same,TGI,[57],> 100 µM
same,GI50,[4],5.21 µM
same,TGI,[4],> 100 µM
same,GI50,[5],1.3 µM
same,TGI,[5],15.7 µM
same,GI50,[6],1.58 µM
same,TGI,[6],> 100 µM
same,GI50,[7],9.5 µM
same,TGI,[7],> 100 µM
same,GI50,[8],2.29 µM
same,TGI,[8],86.8 µM
same,GI50,[9],1.16 µM
same,TGI,[9],4.66 µM
same,GI50,[10],5.69 µM
same,TGI,[10],> 100 µM
same,GI50,[11],1.77 µM
same,TGI,[11],14.9 µM
same,GI50,[12],1.65 µM
same,TGI,[12],> 100 µM
same,GI50,[13],2.58 µM
same,TGI,[13],> 100 µM
same,GI50,[14],0.385 µM
same,TGI,[14],4.02 µM
same,GI50,[15],0.719 µM
same,TGI,[15],> 100 µM
same,GI50,[16],2.96 µM
same,TGI,[16],> 100 µM
same,GI50,[17],5.25 µM
same,TGI,[17],> 100 µM
same,GI50,[18],4.25 µM
same,TGI,[18],> 100 µM
same,GI50,[19],6.2 µM
same,TGI,[19],> 100 µM
same,GI50,[20],4.18 µM
same,TGI,[20],> 100 µM
same,GI50,[21],8.33 µM
same,TGI,[21],> 100 µM
same,GI50,[22],2.84 µM
same,TGI,[22],27.5 µM
same,GI50,[23],4.17 µM
same,TGI,[23],> 100 µM
same,GI50,[24],3.02 µM
same,TGI,[24],> 100 µM
same,GI50,[25],3.51 µM
same,TGI,[25],> 100 µM
same,GI50,[26],10.8 µM
same,TGI,[26],> 100 µM
same,GI50,[27],16.9 µM
same,TGI,[27],> 100 µM
same,GI50,[28],20.3 µM
same,TGI,[28],76.5 µM
same,GI50,[29],3.64 µM
same,TGI,[29],> 100 µM
same,GI50,[30],13.2 µM
same,TGI,[30],> 100 µM
same,GI50,[31],32.4 µM
same,TGI,[31],> 100 µM
same,GI50,[32],15.7 µM
same,TGI,[32],> 100 µM
same,GI50,[33],> 100 µM
same,TGI,[33],> 100 µM
same,GI50,[34],3.04 µM
same,TGI,[34],> 100 µM
same,GI50,[35],4.74 µM
same,TGI,[35],60.5 µM
same,GI50,[36],6.15 µM
same,TGI,[36],> 100 µM
same,GI50,[37],8.88 µM
same,TGI,[37],66.8 µM
same,GI50,[38],2.2 µM
same,TGI,[38],89.3 µM
same,GI50,[39],49.2 µM
same,TGI,[39],> 100 µM
same,GI50,[40],2.83 µM
same,TGI,[40],37.7 µM
same,GI50,[41],3.58 µM
same,TGI,[41],61 µM
same,GI50,[42],1.38 µM
same,TGI,[42],> 100 µM
same,GI50,[43],13.4 µM
same,TGI,[43],97 µM
same,GI50,[44],2.62 µM
same,TGI,[44],17.8 µM
same,GI50,[45],3.36 µM
same,TGI,[45],> 100 µM
same,GI50,[46],13.5 µM
same,TGI,[46],> 100 µM
same,GI50,[49],2.65 µM
same,TGI,[49],12.5 µM
same,GI50,[50],4.38 µM
same,TGI,[50],> 100 µM
same,GI50,[51],3.16 µM
same,TGI,[51],> 100 µM
same,GI50,[58],12.8 µM
same,TGI,[58],> 100 µM
same,GI50,[52],5.09 µM
same,TGI,[52],> 100 µM
same,GI50,[53],10.3 µM
same,TGI,[53],> 100 µM
same,GI50,[54],8.31 µM
same,TGI,[54],> 100 µM
same,GI50,[55],13 µM
same,TGI,[55],> 100 µM
same,GI50,[56],2.74 µM
same,TGI,[56],> 100 µM
